Results from patent publication US20070231871A1, “Process for an Enzymatic Oxygenation by Direct Electrochemical Regeneration of the Fad-Dependent Monooxygenase” (priority 2004, published 2007).
Marks after values point to notes of the source that are not given here.

Target: T1, Styrene monooxygenase (StyAB), FAD-dependent monooxygenase component (StyA) (Pseudomonas sp, UniProt O50214)
T1 construct: made in house; host or cells: Escherichia coli JM101
T1 sequence (O50214 1-415): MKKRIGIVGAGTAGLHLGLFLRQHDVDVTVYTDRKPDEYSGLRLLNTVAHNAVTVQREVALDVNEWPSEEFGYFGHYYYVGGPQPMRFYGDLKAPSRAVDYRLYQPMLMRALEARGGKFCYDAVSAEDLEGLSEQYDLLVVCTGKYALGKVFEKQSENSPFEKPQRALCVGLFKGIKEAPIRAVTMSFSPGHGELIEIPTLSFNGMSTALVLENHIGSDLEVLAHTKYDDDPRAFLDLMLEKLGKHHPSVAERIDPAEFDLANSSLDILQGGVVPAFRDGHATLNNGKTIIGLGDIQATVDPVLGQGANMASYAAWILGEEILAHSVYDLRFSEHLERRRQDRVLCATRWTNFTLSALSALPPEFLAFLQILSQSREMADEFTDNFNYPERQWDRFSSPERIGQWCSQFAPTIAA
Assay: Electroenzymatic epoxidation of styrene derivatives by StyA with direct electrochemical FAD regeneration
Assay type: biochemical
Conditions: for ee-value: optical purity of the (S)-epoxide product of the electroenzymatic epoxidation
Protocol: Initial experiments on the electroenzymatic epoxidation were performed with trans-β-methyl styrene as substrate. Electrolyses were performed potentiostatically applying a cathode potential of −550 mV vs. Ag/AgClsat. No product formation was detectable when either StyA or FAD was omitted from the reaction medium. […] Similarly, a broad variety of diversely substituted vinylaromatic compounds could be transformed to the more than 98% optically pure corresponding (S) epoxides (Table 1).
StyA was enriched from recombinant Escherichia coli JM101 as described previously^[35]. The purity of the lyophilized biocatalyst was approximately 70% (as determined by SDS gel-electrophoresis).
Electrolyses were performed in a thermostatted stirred tank reactor. Cylindrical carbon felt served as cathode (working electrode) and the potential was adjusted versus a saturated Ag/AgClsat. reference electrode. The dimensions of the working electrode are given a macroscopic area (corresponding to an average of 27.1±2.1 mg cm^−2). Conditions of either a divided or an undivided cell were chosen. For the divided cell, the Pt-wire counter electrode was placed in a dialysis membrane; otherwise a Pt-foil (Ø1 cm) was used. After supplementing the reactor with the reaction components indicated a cathode potential of −550 mV vs. Ag/AgClsat was applied. In case of divided cell, O2 was supplied by heterogeneous intake of air (intake rates were estimated with a Hewlett Packard soap film flowmeter; under the conditions of an undivided cell, O2 was generated at the counter electrode.
Reaction rates (and enzyme performances calculated thereof were determined based on the product formation as determined by HPLC using protocols previously reported.^[34, 35]

[1] = potassium phosphate buffer 50 mM pH 7.5, T = 30° C., c(StyA) = 2.13 μM, c(FAD) = 300 μM, catalase 480 U mL^−1, substrate 2 mM, cathode 14 cm^2, −550 mV vs. Ag/AgClsat

Structure (SMILES)	Rate [1] [U g^−1]	ee-value [%]	further results
C=Cc1ccccc1	28.1		
c1ccc([C@H]2CO2)cc1		98.5	
C=C(C)c1ccccc1	14.6		
C[C@]1(c2ccccc2)CO1		99.5	
C1=Cc2ccccc2CC1	58.9		
c1ccc2c(c1)CC[C@H]1O[C@@H]21		99.2	
C=Cc1cccc(Cl)c1			Rate (as general conditions but T = 25° C., activity determined after 15 min): 27.7 [b] U g^−1
Clc1cccc([C@H]2CO2)c1		98.1	
C[C@@H]1O[C@H]1c1ccccc1 [(1S,2S)-1-phenylpropylene oxide]		>99.9	Optical purity of product (substrate trans-β-methyl styrene, −550 mV vs. Ag/AgClsat, all reaction components present): practically enantiopure
C/C=C/c1ccccc1 [trans-β-methyl styrene]	35.5		
